Data taken from patent publication US20200069648A1, “HALOALLYLAMINE PYRAZOLE DERIVATIVE INHIBITORS OF LYSYL OXIDASES AND USES THEREOF” (Pharmaxis Ltd., priority 2017, published 2020).
Structures can show the parent of a compound that is named as a salt.

Experiments:
Human LOXL2 = target: T1, Human LOXL2 (Homo sapiens, UniProt Q9Y4K0); assay: LOXL2 amine oxidase inhibition, peroxidase-coupled Amplex Red assay; assay type: biochemical; conditions: 30 min preincubation at 37° C., putrescine substrate
T1 sequence (Q9Y4K0 26-774): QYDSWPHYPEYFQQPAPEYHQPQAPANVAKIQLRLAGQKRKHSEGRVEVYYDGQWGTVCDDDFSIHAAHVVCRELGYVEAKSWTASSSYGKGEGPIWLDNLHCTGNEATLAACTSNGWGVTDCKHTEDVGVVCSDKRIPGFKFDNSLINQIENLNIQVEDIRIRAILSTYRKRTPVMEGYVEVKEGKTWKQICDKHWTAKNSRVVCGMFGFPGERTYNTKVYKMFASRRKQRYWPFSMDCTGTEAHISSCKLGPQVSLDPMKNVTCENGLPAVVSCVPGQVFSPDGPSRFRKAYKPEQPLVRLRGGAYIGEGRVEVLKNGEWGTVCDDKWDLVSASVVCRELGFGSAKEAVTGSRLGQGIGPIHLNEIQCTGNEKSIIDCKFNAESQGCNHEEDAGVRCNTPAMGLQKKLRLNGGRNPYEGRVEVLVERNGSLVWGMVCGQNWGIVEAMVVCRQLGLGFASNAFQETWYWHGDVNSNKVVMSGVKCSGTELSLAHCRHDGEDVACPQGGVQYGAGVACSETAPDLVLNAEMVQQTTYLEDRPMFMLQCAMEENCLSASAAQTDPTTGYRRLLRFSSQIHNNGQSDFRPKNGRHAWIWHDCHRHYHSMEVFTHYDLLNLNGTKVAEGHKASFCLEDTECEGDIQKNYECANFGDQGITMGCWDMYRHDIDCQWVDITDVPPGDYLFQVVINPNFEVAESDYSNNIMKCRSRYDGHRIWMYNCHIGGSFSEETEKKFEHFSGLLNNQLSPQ
Text: (§1) Method to Determine the Ability of Compounds of the Invention to Inhibit LOX and LOXL1-4 from Different Sources
(§2) Lysyl oxidase (LOX) is an extracellular copper dependent enzyme which oxidizes peptidyl lysine and hydroxylysine residues in collagen and lysine residues in elastin to produce peptidyl alpha-aminoadipic-delta-semialdehydes. […] There are five LOX family members; these are LOX, LOXL1, LOXL2, LOXL3 and LOXL4. LOX and LOXL family members can be acquired as recombinant active proteins from commercial sources, or extracted from animal tissues like bovine aorta, tendons, pig skin; or prepared from cell cultures. The inhibitory effects of the compounds of the present invention were tested against the given LOX-LOXL preparation using a high-throughput coupled colorimetric method (Holt A. and Palcic M., A peroxidase-coupled continuous absorbance plate-reader assay for flavin monoamine oxidases, copper-containing amine oxidases and related enzymes. Nat. Protoc. 2006; 1: 2498-2505). The assay was developed using either 384 or 96 well format. Briefly, in a standard 384 well plate assay 25 μL of a dilution of any of the isoenzymes and orthologues in 1.2 M urea, 50 mM sodium borate buffer (pH 8.2) were added into each well in the presence of 1 μM mofegiline and 0.5 mM pargyline (to inhibit SSAO and MAO-B and MAO-A, respectively). Test compounds were dissolved in DMSO and tested in a Concentration Response Curve (CRC) with 11 data points, typically in the micromolar or nanomolar range after incubation with the enzyme for 30 min at 37° C. Twenty five μL of a reaction mixture containing twice the KM concentration of putrescine (Sigma Aldrich, e.g. 20 mM for LOX, or 10 mM for LOXL2 and LOXL3), 120 μM Amplex Red (Sigma Aldrich) and 1.5 U/mL horseradish peroxidase (Sigma Aldrich) prepared in 1.2 M urea, 50 mM sodium borate buffer (pH 8.2) were then added to the corresponding wells. The above volumes were doubled in the case of 96 wells plate. The fluorescence (RFU) was read every 2.5 min for 30 min at a range of temperatures from 37° to 45° C., excitation 565 nm and emission 590 (Optima; BMG labtech). The slope of the kinetics for each well was calculated using MARS data analysis software (BMG labtech) and this value was used to deduce the IC50 value (Dotmatics).

Bovine LOX = target: T2, Bovine LOX (Bos taurus, UniProt P33072); assay: LOX amine oxidase inhibition, peroxidase-coupled Amplex Red assay; assay type: biochemical; conditions: 30 min preincubation at 37° C., putrescine substrate
T2 sequence (P33072 170-418): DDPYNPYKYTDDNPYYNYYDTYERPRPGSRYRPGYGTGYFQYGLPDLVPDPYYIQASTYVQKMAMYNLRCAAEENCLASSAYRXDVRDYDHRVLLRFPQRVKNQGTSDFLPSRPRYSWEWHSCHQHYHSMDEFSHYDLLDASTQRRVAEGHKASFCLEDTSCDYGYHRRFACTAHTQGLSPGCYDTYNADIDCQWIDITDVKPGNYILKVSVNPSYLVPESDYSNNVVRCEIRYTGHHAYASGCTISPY
Text: as §1
as §2, with “Test compounds were dissolved in DMSO and tested in a Concentration Response Curve (CRC) with 11 data points, typically in the micromolar or nanomolar range after incubation with the enzyme for 30 min at 37° C.” left out

Row | Structure (SMILES) | IC50 (Human LOXL2) | IC50 (Bovine LOX)
1 | COCc1nn(C/C(F)=C/CN)c(C)c1Cc1ccc(S(=O)(=O)N(C)C)c(Cl)c1 [Compound 39, (Z)-4-((1-(4-amino-2-fluorobut-2-en-1-yl)-3-(methoxymethyl)-5-methyl-1H-pyrazol-4-yl)methyl)-2-chloro-N,N-dimethylbenzenesulfonamide] | < 1 µM | < 10 µM
2 | CC(C)c1nn(Cc2ccc(S(=O)(=O)N(C)C)c(Cl)c2)c(C(C)C)c1C/C(F)=C/CN [Compound 64, (Z)-4-((4-(4-amino-2-fluorobut-2-en-1-yl)-3,5-diisopropyl-1H-pyrazol-1-yl)methyl)-2-chloro-N,N-dimethylbenzenesulfonamide hydrochloride] | < 1 µM | < 10 µM
3 | Cc1nn(Cc2ccc(S(=O)(=O)N(C)C)c(Cl)c2)c(C)c1C/C(F)=C/CN [Compound 46, (Z)-4-((4-(4-amino-2-fluorobut-2-en-1-yl)-3,5-dimethyl-1H-pyrazol-1-yl)methyl)-2-chloro-N,N-dimethylbenzenesulfonamide hydrochloride] | < 1 µM | < 10 µM
4 | Cc1c(Cc2ccc(S(=O)(=O)N(C)C)c(Cl)c2)c(Cl)nn1C/C(F)=C/CN [Compound 42, (Z)-4-((1-(4-amino-2-fluorobut-2-en-1-yl)-3-chloro-5-methyl-1H-pyrazol-4-yl)methyl)-2-chloro-N,N-dimethylbenzenesulfonamide] | < 1 µM | < 10 µM
5 | Cc1nn(C/C(F)=C/CN)c(C)c1Cc1ccc(S(N)(=O)=O)c(Cl)c1 [Compound 51, (Z)-4-((1-(4-amino-2-fluorobut-2-en-1-yl)-3,5-dimethyl-1H-pyrazol-4-yl)methyl)-2-chlorobenzenesulfonamide hydrochloride] | < 1 µM | < 10 µM
6 | Cc1nn(C/C(F)=C/CN)c(C)c1-c1cccc(S(=O)(=O)N(C)C)c1 [Compound 33, (Z)-3-(1-(4-amino-2-fluorobut-2-en-1-yl)-3,5-dimethyl-1H-pyrazol-4-yl)-N,N-dimethylbenzenesulfonamide] | < 1 µM | < 10 µM
7 | Cc1c(Cc2ccc(S(=O)(=O)N(C)C)c(Cl)c2)c(C(F)(F)F)nn1C/C(F)=C/CN [Compound 57, (Z)-4-((1-(4-amino-2-fluorobut-2-en-1-yl)-5-methyl-3-(trifluoromethyl)-1H-pyrazol-4-yl)methyl)-2-chloro-N,N-dimethylbenzenesulfonamide hydrochloride] | < 1 µM | < 10 µM
8 | Cc1nn(C/C(F)=C/CN)c(CO)c1Cc1ccc(S(=O)(=O)N(C)C)cc1Cl [Compound 55, (Z)-4-((1-(4-amino-2-fluorobut-2-en-1-yl)-5-(hydroxymethyl)-3-methyl-1H-pyrazol-4-yl)methyl)-3-chloro-N,N-dimethylbenzenesulfonamide hydrochloride] | < 1 µM | < 10 µM
9 | Cc1nn(C/C(F)=C/CN)c(Cl)c1Cc1ccc(S(=O)(=O)N(C)C)c(Cl)c1 [Compound 41, (Z)-4-((1-(4-amino-2-fluorobut-2-en-1-yl)-5-chloro-3-methyl-1H-pyrazol-4-yl)methyl)-2-chloro-N,N-dimethylbenzenesulfonamide] | < 1 µM | < 10 µM
10 | Cc1c(-c2cccc(S(=O)(=O)N(C)C)c2)c(Cl)nn1C/C(F)=C/CN [Compound 34, (Z)-3-(1-(4-amino-2-fluorobut-2-en-1-yl)-3-chloro-5-methyl-1H-pyrazol-4-yl)-N,N-dimethylbenzenesulfonamide hydrochloride] | < 1 µM | < 10 µM
11 | Cc1nn(C/C(F)=C/CN)c(C(F)(F)F)c1Cc1ccc(S(=O)(=O)N(C)C)c(Cl)c1 [Compound 56, (Z)-4-((1-(4-amino-2-fluorobut-2-en-1-yl)-3-methyl-5-(trifluoromethyl)-1H-pyrazol-4-yl)methyl)-2-chloro-N,N-dimethylbenzenesulfonamide hydrochloride] | < 1 µM | < 10 µM
